How the values were obtained:
HIV integrase = HIV integrase (Human immunodeficiency virus type 1 group M subtype B (isolate HXB2) (HIV-1), UniProt P04585); assay: HIV integrase inhibitory activity assay (immunoplate strand transfer, OD405); assay type: biochemical; conditions: for IC50: read-out: Integrase inhibitory activity (IC50, ng/ml) (converted)
Method: The HIV integrase inhibitory activity was investigated based on the following assay method.
(1) Preparation of DNA Solution
By the same method as that described in Experimental Example 1 of WO 2004/024693, a substrate DNA solution (2 pmol/μl) and a target DNA solution (5 pmol/μl) were prepared. […] Each sequence of a substrate DNA and a target DNA is as described in the same Experimental Example.
(2) Measurement of Inhibition Rate (IC50 Value)
Streptavidin (manufactured by Vector Laboratories) was dissolved in a 0.1M carbonate buffer solution (composition: […] Na2CO3, 10 mM NaHCO3) to a concentration of 40 μg/ml, Each 50 μl of this solution was added to a well of an immunoplate (manufactured by NUNC), this is allowed to stand at 4° C. overnight to adsorb. Then, each well was washed with a phosphate buffer (composition: 13.7 mM NaCl, 0.27 mM KCl, 0.43 mM Na2HPO4, 0.14 mM KH2PO4) two times, and 300 μl of a phosphate buffer containing 1% skim milk to block it for 30 minutes. Further, each well was washed with a phosphate buffer two times, 50 μl of a substrate DNA solution (2 pmol/μl) was added to adsorb at room temperature for 30 minutes while shaking, and this was washed with a phosphate buffer two times and, then, distilled water once.
Then, to each well prepared as described above were added 12 μl of a buffer (composition: 150 mM MOPS (pH7.2), 75 mM MnCl2, 50 mM 2-mercaptoethanol, 25% glycerol, 500 μg/ml bovine serum albumin-fraction V), and 51 μl of a reaction solution prepared from 39 μl of distilled water. Then, 9 μl of an integrase solution (30 pmol) was added, and the mixture was mixed well. To a well as a negative control (NC) was added 9 μl of a diluting solution (composition: 20 mM MOPS (pH7.2), 400 mM potassium glutamate, 1 mM EDTA, 0.1% NP-40, 20% glycerol, 1 mM DTT, 4 M urea), and this was mixed well using a plate mixer. […]
C abs.: absorbance of well of compound
NC abs.: absorbance of NC
PC abs.: absorbance of PC

[1] = tested on: VSV-g pseudotyped HIV vector that expresses luciferase (PHIV); assay: microbe, parasite or virus in culture; assay type: cell-based; conditions: Human immunodeficiency virus 1, HEK-293T, 48 h, read-out: PHIV IC50

Row | SMILES | IC50 [1] | other results
1 | O=C(NCc1ccc(F)cc1)c1cn2c(c(O)c1=O)C(=O)N1CCOC1C2 (stereo not shown) [Example C-2, 5-Hydroxy-4,6-dioxo-2,3,4,6,9,9a-hexahydro-1-oxa-8a,8a-diaza-cyclopenta[b]naphthalene-7 carboxylic acid 4-fluorobenzylamide] | – | Integrase inhibitory activity (IC50, ng/ml) (HIV integrase): 3.3 ng/mL
2 | CC(C)CN1CCCN2C(=O)c3c(O)c(=O)c(C(=O)NCc4ccc(F)cc4)cn3CC12 (stereo not shown) [Example F-2, 5-Hydroxy-1-isobutyl-6,10-dioxo-1,2,3,4,6,9,9a,10-octahydro-1,4a,8a-triazaanthracene-7-carboxylic acid 4-fluorobenzylamide] | – | IC50 (HIV integrase): 0.00859 µM
3 | CC(=O)N1CCCN2C(=O)c3c(O)c(=O)c(C(=O)NCc4ccc(F)cc4)cn3CC12 (stereo not shown) [Example H-2, 1-Acetyl-5-hydroxy-6,10-dioxo-1,2,3,4,6,9,9a,10-octahydro-1,4a,8a-triaza-anthracene-7-carboxylic acid 4-fluoro-benzylamide] | – | IC50 (HIV integrase): 0.00747 µM
4 | CC(C)CCN1CC[C@H](C)N2C(=O)c3c(O)c(=O)c(C(=O)NCc4ccc(F)cc4F)cn3C[C@@H]12 [Example Z-45, (4S,12aS)—N-[(2,4-Difluorophenyl)methyl]-7-hydroxy-4-methyl-1-(3-methylbutyl)-6,8-dioxo-1,2,3,4,6,8,12,12a-octahydropyrido[1′,2′:4,5]pyrazino[1,2-a]pyrimidine-9-carboxamide] | < 0.01 µM | –
5 | C[C@H]1CCN(Cc2cccnc2)[C@@H]2Cn3cc(C(=O)NCc4ccc(F)cc4F)c(=O)c(O)c3C(=O)N12 [Example Z-46, (4S,12aS)—N-[(2,4-Difluorophenyl)methyl]-7-hydroxy-4-methyl-6,8-dioxo-1-(3-pyridinylmethyl)-1,2,3,4,6,8,12,12a-octahydropyrido[1′,2′:4,5]pyrazino[1,2-a]-pyrimidine-9-carboxamide] | < 0.01 µM | –
6 | C[C@H]1CCN(C2CC2)[C@@H]2Cn3cc(C(=O)NCc4ccc(F)cc4F)c(=O)c(O)c3C(=O)N12 [Example Z-47, (4S,12aS)-1-Cyclopropyl-N-[(2,4-difluorophenyl)methyl]-7-hydroxy-4-methyl-6,8-dioxo-1,2,3,4,6,8,12,12a-octahydropyrido[1′,2′:4,5]pyrazino[1,2-a]pyrimidine-9-carboxamide] | < 0.01 µM | –
7 | COCCN1CC[C@H](C)N2C(=O)c3c(O)c(=O)c(C(=O)NCc4ccc(F)cc4F)cn3C[C@@H]12 [Example Z-48, (4S,12aS)—N-[(2,4-Difluorophenyl)methyl]-7-hydroxy-4-methyl-1-[2-(methyloxy)ethyl]-6,8-dioxo-1,2,3,4,6,8,12,12a-octahydropyrido[1′,2′:4,5]pyrazino[1,2-a]pyrimidine-9-carboxamide] | < 0.01 µM | –
8 | CC[C@@H]1CO[C@H]2Cn3cc(C(=O)NCc4ccc(F)cc4F)c(=O)c(O)c3C(=O)N12 [Example Z-50, (3R,11aS)—N-[(2,4-Difluorophenyl)methyl]-3-ethyl-6-hydroxy-5,7-dioxo-2,3,5,7,11,11a-hexahydro[1,3]oxazolo[3,2-a]pyrido[1,2-d]pyrazine-8-carboxamide] | < 0.01 µM | –
9 | C[C@H]1CCN(C2CCC2)[C@@H]2Cn3cc(C(=O)NCc4ccc(F)cc4F)c(=O)c(O)c3C(=O)N12 [Example Z-59, (4S,12aS)-1-Cyclobutyl-N-[(2,4-difluorophenyl)methyl]-7-hydroxy-4-methyl-6,8-dioxo-1,2,3,4,6,8,12,12a-octahydropyrido[1′,2′:4,5]pyrazino[1,2-a]pyrimidine-9-carboxamide] | < 0.01 µM | –
10 | C[C@H]1CCN(C2CCSCC2)[C@@H]2Cn3cc(C(=O)NCc4ccc(F)cc4F)c(=O)c(O)c3C(=O)N12 [Example Z-60, (4S,12aS)—N-[(2,4-Difluorophenyl)methyl]-7-hydroxy-4-methyl-6,8-dioxo-1-(tetrahydro-2H-thiopyran-4-yl)-1,2,3,4,6,8,12,12a-octahydropyrido[1′,2′:4,5]pyrazino[1,2-a]pyrimidine-9-carboxamide] | < 0.01 µM | –

Source: patent US11267823B2, “Substituted 1,2,3,3a,4,5,7,9,13,13a-decahydropyrido[1′,2′:4,5]pyrazino[1,2-a]pyrrolo[1,2-c]pyrimidines having HIV integrase inhibitory activity” (Shionogi & Co., Ltd., priority 2005, dated 2022)
